Measured values: US20140080704A1, “SUBSTITUTED VINYL AND ALKINYL CYCLOHEXENOLS AS ACTIVE AGENTS AGAINST ABIOTIC STRESS IN PLANTS” (priority 2011, published 2014)

Columns and labels:
[1] = tested on: ZEAMX (Zea mays); assay: Drought stress test on greenhouse crop plants, spray application, efficacy EF (ZEAMX); type: in vivo; conditions: dosage 25 g/ha, 600 l/ha water, mean of three results
Experimental: (§1) Seeds of monocotyledonous and dicotyledonous crop plants were laid out in sandy loam in wood-fiber pots, covered with soil and cultivated in a greenhouse under good growth conditions. The test plants were treated at the early leaf stage (BBCH10-BBCH13). To ensure uniform water supply before commencement of stress, the potted plants were supplied with the maximum amount of water immediately beforehand by dam irrigation and, after application, transferred in plastic inserts in order to prevent subsequent, excessively rapid drying. The inventive compounds, formulated in the form of wettable powders (WP), wettable granules (WG), suspension concentrates (SC) or emulsion concentrates (EC), were sprayed onto the green parts of the plants as an aqueous suspension at an equivalent water application rate of 600 l/ha with addition of 0.2% wetting agent (agrotin). Substance application is followed immediately by stress treatment of the plants (cold or drought stress). For cold stress treatment, the plants were kept under the following controlled conditions: • “day”: 12 hours with illumination at 8° C. • “night”: 12 hours without illumination at 1° C. […] The intensity of damage was first assessed as a percentage (100%=plants have died, 0%=like control plants). […]

[2] = tested on: BRSNS (Brassica napus); assay: Drought stress test on greenhouse crop plants, spray application, efficacy EF (BRSNS); type: in vivo; conditions: dosage 25 g/ha, 600 l/ha water, mean of three results
Experimental: as §1

CC1=CC(=O)C2CC2(C)C1(O)C#CC1=CC(=O)OC1 (centres unmarked) [I.4-54, 4-[(2-hydroxy-1,3-dimethyl-5-oxobicyclo[4.1.0]hept-3-en-2-yl)ethynyl]furan-2(5H)-one]
EF (ZEAMX): efficacy = percentage reduction in the intensity of damage [1]: >5% | EF (BRSNS): efficacy = percentage reduction in the intensity of damage [2]: >5%
